Reference: PMC8653295 (Chemistry (Weinheim an Der Bergstrasse, Germany), 2021)
“And” between values parts separate entries of the source, which are not always exact repeats. Identical values can stand only once.

Target: interaction of the RBD of the SARS‐CoV‐2 S protein with the ACE2 receptor (Severe acute respiratory syndrome coronavirus 2, UniProt P0DTC2)
Assay: not given
Assay type: binding
Details: not given

Compound	activity against the S/ACE2 interaction (in words)
[Cl][Ti]([Cl])([Cl])[Cl] [Ti‐2, titanium(IV) tetrachloride, reference compound]	inactive

Same assay, conditions: 20 µM

Compound	inhibition of the S/ACE2 interaction [%]
Cc1cn(C/C=C/[c-]2cccc2)c(=O)[nH]c1=O.Cc1cn(C/C=C/[c-]2cccc2)c(=O)[nH]c1=O.[Fe+2] [Fe‐12]	28
CCP(CC)CC.[Au+].[Cl-] [Au‐3, (triethylphosphine)AuCl, reference compound]	24
C1=CCCC=CCC1.Cn1[c-][n+](C)c(-c2ccc(F)cc2)c1.[Cl-].[Rh+] [Rh‐10]	14
Cn1cc(-c2ccccc2)[n+](C)[c]1[Au-][c]1n(C)cc(-c2ccccc2)[n+]1C.[I-] [Au‐24]	18
O=[N+]([O-])[O-].[Ag+] [Ag‐1, silver nitrate, reference compound]	6
C1=CCCC=CCC1.Cn1[c-][n+](C)c(-c2ccc(F)cc2)c1.[Br-].[Rh+] [Rh‐11]	14
[Au+3].[Cl-].[Cl-].[Cl-].[Cl-].[H+] [Au‐5, chloroauric acid, reference compound]	45
C1=CCCC=CCC1.CCn1[c-][n+](CC)c(-c2ccccc2)c1.[I-].[Rh+] [Rh‐3]	0
Cc1cn(CC=C[c-]2cccc2)c(=O)[nH]c1=O.[Ru+2].c1cc[cH-]c1 [Ru‐17]	26
Cn1cc(-c2ccccc2)n(C)[c]1=[Au][Cl] [Au‐14]	17
Cc1ccc(C(C)C)cc1.[Cl-].[Cl-].[Ru+2].[c-]1n(Cc2ccccc2)cc[n+]1Cc1ccccc1 [Ru‐9]	2
C1=CCCC=CCC1.CCn1[c-][n+](CC)c(-c2ccccc2)c1.[Br-].[Rh+] [Rh‐2]	1
((NH2)3C)4[(BrC6H4As)2Mo6O24] ⋅ 2H2O [POM‐9]	7
CC(C)n1cc(-c2ccccc2)n(C(C)C)[c]1=[Au][Cl] [Au‐16]	10
C1=CCCC=CCC1.CCn1[c-][n+](CC)c(-c2ccc(F)cc2)c1.[I-].[Rh+] [Rh‐6]	22
K6H2[CoW11TiO40] ⋅ 12H2O [POM‐4]	82
[Cl][Ti]([Cl])([Cl])[Cl] [Ti‐2, titanium(IV) tetrachloride, reference compound]	0

Target: SARS‐CoV PL^pro (Severe acute respiratory syndrome coronavirus, UniProt P0C6X7)
Assay: biochemical
Assay type: biochemical
Details: not given

Compound	IC50 [µM]	activity against SARS‐CoV PL^pro (in words)
CCP(CC)CC.[Au+].[Cl-] [Au‐3, (triethylphosphine)AuCl, reference compound]	1.2 ± 0.44	–
O=[N+]([O-])[O-].[Ag+] [Ag‐1, silver nitrate, reference compound]	–	completely inhibited
K6H2[CoW11TiO40] ⋅ 12H2O [POM‐4]	–	active only against the enzyme from SARS‐CoV
[Cl][Ti]([Cl])([Cl])[Cl] [Ti‐2, titanium(IV) tetrachloride, reference compound]	–	inactive

Same assay, conditions: 10 µM

Compound	inhibition of SARS-CoV PLpro
Cc1cn(C/C=C/[c-]2cccc2)c(=O)[nH]c1=O.Cc1cn(C/C=C/[c-]2cccc2)c(=O)[nH]c1=O.[Fe+2] [Fe‐12]	-4%
CCP(CC)CC.[Au+].[Cl-] [Au‐3, (triethylphosphine)AuCl, reference compound]	95% and > 50%
C1=CCCC=CCC1.Cn1[c-][n+](C)c(-c2ccc(F)cc2)c1.[Cl-].[Rh+] [Rh‐10]	90%
Cn1cc(-c2ccccc2)[n+](C)[c]1[Au-][c]1n(C)cc(-c2ccccc2)[n+]1C.[I-] [Au‐24]	12%
O=[N+]([O-])[O-].[Ag+] [Ag‐1, silver nitrate, reference compound]	100%
C1=CCCC=CCC1.Cn1[c-][n+](C)c(-c2ccc(F)cc2)c1.[Br-].[Rh+] [Rh‐11]	91%
[Au+3].[Cl-].[Cl-].[Cl-].[Cl-].[H+] [Au‐5, chloroauric acid, reference compound]	89% and > 50%
C1=CCCC=CCC1.CCn1[c-][n+](CC)c(-c2ccccc2)c1.[I-].[Rh+] [Rh‐3]	63%
Cc1cn(CC=C[c-]2cccc2)c(=O)[nH]c1=O.[Ru+2].c1cc[cH-]c1 [Ru‐17]	3%
Cn1cc(-c2ccccc2)n(C)[c]1=[Au][Cl] [Au‐14]	51%
Cc1ccc(C(C)C)cc1.[Cl-].[Cl-].[Ru+2].[c-]1n(Cc2ccccc2)cc[n+]1Cc1ccccc1 [Ru‐9]	12%
C1=CCCC=CCC1.CCn1[c-][n+](CC)c(-c2ccccc2)c1.[Br-].[Rh+] [Rh‐2]	67%
((NH2)3C)4[(BrC6H4As)2Mo6O24] ⋅ 2H2O [POM‐9]	13%
CC(C)n1cc(-c2ccccc2)n(C(C)C)[c]1=[Au][Cl] [Au‐16]	57%
C1=CCCC=CCC1.CCn1[c-][n+](CC)c(-c2ccc(F)cc2)c1.[I-].[Rh+] [Rh‐6]	70%
K6H2[CoW11TiO40] ⋅ 12H2O [POM‐4]	44%
[Cl][Ti]([Cl])([Cl])[Cl] [Ti‐2, titanium(IV) tetrachloride, reference compound]	-7%

Target: SARS‐CoV‐2 PL^pro (Severe acute respiratory syndrome coronavirus 2, UniProt P0DTD1)
Assay: biochemical
Assay type: biochemical
Details: not given

Compound	IC50 [µM]	activity against SARS‐CoV‐2 PL^pro (in words)
CCP(CC)CC.[Au+].[Cl-] [Au‐3, (triethylphosphine)AuCl, reference compound]	1.1 ± 0.12	–
O=[N+]([O-])[O-].[Ag+] [Ag‐1, silver nitrate, reference compound]	0.45 ± 0.21	–
[Cl][Ti]([Cl])([Cl])[Cl] [Ti‐2, titanium(IV) tetrachloride, reference compound]	–	inactive

Same assay, conditions: 1 µM

Compound	inhibition of SARS-CoV-2 PLpro
Cc1cn(C/C=C/[c-]2cccc2)c(=O)[nH]c1=O.Cc1cn(C/C=C/[c-]2cccc2)c(=O)[nH]c1=O.[Fe+2] [Fe‐12]	-8%
CCP(CC)CC.[Au+].[Cl-] [Au‐3, (triethylphosphine)AuCl, reference compound]	55% and > 50%
C1=CCCC=CCC1.Cn1[c-][n+](C)c(-c2ccc(F)cc2)c1.[Cl-].[Rh+] [Rh‐10]	45%
Cn1cc(-c2ccccc2)[n+](C)[c]1[Au-][c]1n(C)cc(-c2ccccc2)[n+]1C.[I-] [Au‐24]	-17%
O=[N+]([O-])[O-].[Ag+] [Ag‐1, silver nitrate, reference compound]	72%
C1=CCCC=CCC1.Cn1[c-][n+](C)c(-c2ccc(F)cc2)c1.[Br-].[Rh+] [Rh‐11]	48%
[Au+3].[Cl-].[Cl-].[Cl-].[Cl-].[H+] [Au‐5, chloroauric acid, reference compound]	72% and > 50%
C1=CCCC=CCC1.CCn1[c-][n+](CC)c(-c2ccccc2)c1.[I-].[Rh+] [Rh‐3]	15%
Cc1cn(CC=C[c-]2cccc2)c(=O)[nH]c1=O.[Ru+2].c1cc[cH-]c1 [Ru‐17]	-17%
Cn1cc(-c2ccccc2)n(C)[c]1=[Au][Cl] [Au‐14]	23%
Cc1ccc(C(C)C)cc1.[Cl-].[Cl-].[Ru+2].[c-]1n(Cc2ccccc2)cc[n+]1Cc1ccccc1 [Ru‐9]	10%
C1=CCCC=CCC1.CCn1[c-][n+](CC)c(-c2ccccc2)c1.[Br-].[Rh+] [Rh‐2]	17%
((NH2)3C)4[(BrC6H4As)2Mo6O24] ⋅ 2H2O [POM‐9]	7%
CC(C)n1cc(-c2ccccc2)n(C(C)C)[c]1=[Au][Cl] [Au‐16]	41%
C1=CCCC=CCC1.CCn1[c-][n+](CC)c(-c2ccc(F)cc2)c1.[I-].[Rh+] [Rh‐6]	19%
K6H2[CoW11TiO40] ⋅ 12H2O [POM‐4]	7%
[Cl][Ti]([Cl])([Cl])[Cl] [Ti‐2, titanium(IV) tetrachloride, reference compound]	-3%
